In US12202804B2, “In vitro or ex vivo methods for screening a quinoline derivative” (ABIVAX, priority 2014, dated 2025):

Experiments:
miR-124 = test: Modulation of miR-124 expression in PBMCs (qPCR, relative quantification); assay type: cell-based, human; details: for effect on the overexpression of miR-124 in PBMCs: known antiretrovirals, PBMCs from four donors; for Fold-change compared to DMSO treated cells (Relative quantification) Mean / fold induction at 5 µM / fold induction at 10 µM: miR-124 expression, PBMCs of healthy donors; for Fold-change compared to DMSO treated cells (Relative quantification) Mean / fold induction at 10 µM: antiretroviral drugs 10 μM, extraction day 6, 4 donors; for fold induction at 5 µM / fold induction at 10 µM: Homo sapiens, PBMC, 144 h, read-out: Fold-change compared to DMSO treated cells (Relative quantification) Mean; for fold induction at 5 µM: quinoline derivatives 5 μM, extraction day 6, mean over 1 to 7 donors
Description: Briefly, 60-70 mL of buffy-coat are poured in a flask of 175 cm^2, and the volume is adjusted to 300 mL using PBS in order to obtain a dilution of about 5-fold of the buffy coat. […] The lymphocyte ring is recovered from the Falcon™ tube with a transfer pipette (Pastette®) and then washed with PBS using centrifugation for 10 minutes at 290 rcf and at ambient temperature until the supernatant becomes clear.
Cells are incubated for 48 hours at 37° C. under 5% CO2.
Six-well plates are used for the screening. Within each well comprising 3.10^6 cell/4 ml RPMI supplemented with 10% fetal calf serum and 40 U/mL IL-2 (Peprotech Ref 200-02) are added screened molecules. 100% DMSO (4 μL) is added to the well and tested as a negative control.
Each tested condition is set up as described here below and the final corresponding volume is adjusted accordingly in the well: • 1) Quinoline derivatives in 100% DMSO—(5 μM and final volume 4 μL) • 2) Antiretroviral drugs: Maraviroc, Efavirenz, Darunavir, AZT (10 μM for all—final volume 4 μL).
The wells are incubated for three days at 37° C. under 5% CO2 Medium is changed (Day 3) according to standard protocols. Briefly, plates are centrifugated at 290 rcf for 5 minutes and 3 mL of supernatant is removed. 3 mL of RPMI supplemented with 10% fetal calf serum and 40 U/mL IL-2 is then added with 3 μL of a stock solution of screened molecule at 5 mM in 100% DMSO or 3 μL of 100% DMSO as a negative control.
Cells are recovered within Falcon™ tubes of 15 mL, centrifugated at 290 rcf for 5 minutes, and then washed in 10 mL PBS and further centrifugated at 290 rcf for 5 minutes. Cells are then resuspended in 1 mL PBS and counted.
6×10^6 cells are recovered and centrifugated at 290 rcf for 5 minutes.
The miRNA extraction is achieved using the protocol from Macherey Nagel Nucleospin® miRNA extraction kit using an elution volume for RNAs of 50 μL and miRNAs of 30 μL, and further stored at −20° C.
The reverse transcription step is followed for 12 μL of miRNA using the miScript RT II reverse transcription (RT) kit from QIAGEN© using the miScript HiSpec buffer, and further stored at −20° C.
The quantitative PCR step is achieved using the QIAGEN© miScript SYBR® Green PCR kit and miScript Primer Assays according to the manufacturer's protocol.
The reaction is repeated in triplicates in a 384-well plate according to the manufacturer's protocol on a LightCycler® […] Roche Real-Time PCR system. Cycling conditions are also set up according to the manufacturer's protocol: […]

[1] = test system: (DSS-) induced colitis model; test: Dextran Sulphate Sodium (DSS-) induced colitis mouse model; assay type: in vivo, C57BL/6 mice
Description: A commonly used mouse model of inflammatory bowel disease is the Dextran Sulphate Sodium (DSS-) induced colitis model. Typical histological changes of acute DSS-colitis are mucin depletion, epithelial degeneration and the eventual destruction of the mucosal barrier which leads to inflammation and colitis.
Three groups of 6-week-old C57BL/6 mice (8 mice each) received DSS administration in the drinking water (2.5%) for 9 days (FIGS. 1-2). Weight loss and water consumption was measured every day. The latter was determined by measuring the volume loss of the drinking water in the respective devices. The mice were treated by gavage with 200 ul of 0.5 MC alone (DSS+MC group) or together with 40 mg/kg of compound 24 (DSS+MC+24 group). At the point when control mice have loosed up to 20% of their weight (DSS), the treatment with DSS is stopped and replaced with drinking water. The other treatments were continued for 21 days.
Three groups of 16-week-old C57BL/6 mice (7 mice each) received 2.5% DSS in drinking water (FIG. 3). The mice were treated by gavage with 200 ul of 0.5 MC alone (DSS+MC group) or together with 40 mg/kg of compound 24 (DSS+MC+24 group). The mice were treated with DSS for 6 days and at the point when control mice have loosed up to 15% of their weight (DSS), all the mice were euthanized and colon were taken for further analyses.
Colons were measured using a ruler and for histological analysis the entire colon was prepared according to the Swiss roll procedure (Whittem el al.; “Murine Colitis Modeling using Dextran Sulfate Sodium (DSS)”, J Vis Exp 2010 (35) 1652) fixed with formaldehyde and embedded in paraffin. 4 μm sections were de-paraffinized and stained with hematoxylin and eosin and analyzed for lesion size and other alterations (FIGS. 4-6). We compared untreated and treated mice during the DSS-cycle with quinoline derivatives suspended in methylcellulose or methylcellulose (MC) only. Statistical analysis was performed using Mann-Whitney test, asterisk indicates a significant difference ([…]), two asterisks indicate a very significant difference ([…])

[2] = test system: Collagen induced arthritis model; test: Collagen induced arthritis mouse model; assay type: in vivo, DBA/1 mice
Description: Groups of 9 to -10-week-old DBA/1 mice were immunized intradermally with bovine collagen type II emulsified in a 1:1 proportion with complete Freund's adjuvant. Mice were challenged 21 days after the first immunization and the phenotypic appearance of arthritis was evaluated by monitoring every second day the thickness of each hind paw ankle joint thickness was measured using a dial caliper (0- to 10-mm) test gauge using a thickness gage. Mice were treated daily for two weeks with quinoline derivatives candidates suspended in methylcellulose or methylcellulose (MC) only and the development of the disease was then monitored. Statistical analysis was performed using Mann-Whitney test, asterisk indicates a significant difference ([…]).

## Cc1cn([C@H]2C[C@H](N=[N+]=[N-])[C@@H](CO)O2)c(=O)[nH]c1=O [AZT, reference compound]
miR-124
  effect on the overexpression of miR-124 in PBMCs: none of the known antiretroviral (Maraviroc, Effavirenz, Darunavir or AZT) has any significant effect
  Fold-change compared to DMSO treated cells (Relative quantification) Mean: 0.90

## Cc1ccnc(Nc2ccc3cccc(Cl)c3n2)c1 [Compound 1]
miR-124
  fold induction at 5 µM: 32

## FC(F)(F)c1ccc(Nc2ccc3cccc(Cl)c3n2)nc1 [Compound 2]
miR-124
  fold induction at 5 µM: 66.7

## Fc1ccc(Nc2ccc3cccc(Cl)c3n2)nc1 [Compound 3]
miR-124
  fold induction at 5 µM: 48.5

## Cc1ccnc(Nc2ccc3cccc(Cl)c3n2)c1N [Compound 4]
miR-124
  fold induction at 5 µM: 24.4

## FC(F)(F)c1ccnc(Nc2ccc3c(OCCN4CCOCC4)ccc(Cl)c3n2)c1 [Compound 5]
miR-124
  fold induction at 5 µM: 26.8

## FC(F)(F)c1ccnc(Nc2ccc3c(OCCN4CCCCC4)ccc(Cl)c3n2)c1 [Compound 6]
miR-124
  fold induction at 5 µM: 30.9

## Nc1ccc(Cl)c2nc(Nc3cc(C(F)(F)F)ccn3)ccc12 [Compound 7]
miR-124
  fold induction at 5 µM: 7.54

## FC(F)(F)c1ccnc(Nc2ccc3c(OCCCN4CCCCC4)ccc(Cl)c3n2)c1 [Compound 8, 8-chloro-5-(3-(piperidin-1-yl)propoxy)-N-(4-(trifluoromethyl)pyridin-2-yl)quinolin-2-amine]
miR-124
  fold induction at 5 µM: 7.97

## FC(F)(F)c1ccnc(Nc2cc(NCCCN3CCCCC3)c3cccc(Cl)c3n2)c1 [Compound 9, 8-chloro-N^4-(3-(piperidin-1-yl)propyl)-N^2-(4-(trifluoromethyl)pyridin-2-yl)quinoline-2,4-diamine]
miR-124
  fold induction at 5 µM: 112

## CN(c1cc(C(F)(F)F)ccn1)c1ccc2cccc(Cl)c2n1 [Compound 10, 8-chloro-N-methyl-N-(4-(trifluoromethyl)pyridin-2-yl)quinolin-2-amine]
miR-124
  fold induction at 5 µM: 21.1

## FC(F)(F)c1ccnc(Nc2cc(NCCN3CCOCC3)c3cccc(Cl)c3n2)c1 [Compound 11, 8-chloro-N^4-(2-morpholinoethyl)-N^2-(4-(trifluoromethyl)pyridin-2-yl)quinoline-2,4-diamine]
miR-124
  fold induction at 5 µM: 17.4

## FC(F)(F)c1ccnc(Nc2ccc3cccc(Cl)c3n2)c1 [Compound 12]
miR-124
  fold induction at 5 µM: 16.3

## COc1ccc(Nc2ccc3cccc(Cl)c3n2)cc1 [Compound 23]
miR-124
  fold induction at 5 µM: 45.1

## FC(F)(F)Oc1ccc(Nc2ccc3cccc(Cl)c3n2)cc1 [Compound 24, 8-chloro-N-[4-(trifluoromethoxy)phenyl]quinolin-2-amine]
miR-124
  fold induction at 5 µM: 32.5
[1]; after 5 days of DSS-administration, 40 mg/kg by gavage in MC, MC or untreated mice 10% to 20%
  weight loss in average: < 1%
[1]; after two DSS-cycles
  alterations in lymphoid organs such as Peyer's Patches: decrease of alterations in lymphoid organs such as Peyer's Patches
[1]; colon histology (FIG. 5), versus 8.4 in MC only treated mice
  average size of the lesion area: 2.1 mm^2
[1]; colon histology, compared between cohorts (FIG. 4)
  number of lesions: comparable number of lesions
[1]; drug treated mice, DSS model, 40 mg/kg by gavage
  water consumption: higher water consumption
[1]; mice exposed to two DSS-cycles, vs 12.2 in MC only treated mice
  average size of the lesion area: 3.8 mm^2
[1]; second cycle of DSS, 40 mg/kg by gavage
  weight loss during the second administration of DSS: significantly control weight loss
[2]; hind paw ankle joint thickness, MC only treated about 2.2 mm (FIG. 6)
  swelling of joints: 1.9 mm
[2]; treated daily for two weeks, 8 out of 10 MC treated mice developed disease
  mice that displayed signs of inflammation: one out of ten

## Nc1cc(OC(F)(F)F)ccc1Nc1ccc2cccc(Cl)c2n1 [Compound 25]
miR-124
  fold induction at 5 µM: 14.3

## Nc1ccc(Cl)c2nc(Nc3ccc(OC(F)(F)F)c(Cl)c3)ccc12 [Compound 26]
miR-124
  fold induction at 5 µM: 6.13

## Cc1cc2c(N)ccc(Cl)c2nc1Nc1ccc(OC(F)(F)F)c(Cl)c1 [Compound 27]
miR-124
  fold induction at 5 µM: 1.42

## CN(c1ccc(OC(F)(F)F)cc1)c1ccc2cccc(Cl)c2n1 [Compound 28, 8-chloro-N-methyl-N-(4-(trifluoromethoxy)phenyl)quinolin-2-amine]
miR-124
  fold induction at 5 µM: 22.2

## FC(F)(F)Oc1ccc(N(CCCN2CCCCC2)c2ccc3cccc(Cl)c3n2)cc1 [Compound 30, 8-chloro-N-(3-(piperidin-1-yl)propyl)-N-(4-(trifluoromethoxy)phenyl)quinolin-2-amine]
miR-124
  fold induction at 5 µM: 9.88

## Clc1cccc2ccc(Nc3cnccn3)nc12 [Compound 45]
miR-124
  fold induction at 5 µM: 34.2

## FC(F)(F)c1ccnc(Oc2ccc3cccc(Cl)c3n2)c1 [Compound 46, 8-chloro-2-((4-(trifluoromethyl)pyridin-2-yl)oxy)quinoline]
miR-124
  fold induction at 5 µM: 6.23

## FC(F)(F)Oc1ccc(Oc2ccc3cccc(Cl)c3n2)cc1 [Compound 48, 8-chloro-2-(4-(trifluoromethoxy)phenoxy)quinoline]
miR-124
  fold induction at 5 µM: 24

## CC(C)CN(C[C@@H](O)[C@H](Cc1ccccc1)NC(=O)O[C@H]1CO[C@H]2OCC[C@H]21)S(=O)(=O)c1ccc(N)cc1 [Darunavir, reference compound]
miR-124
  fold induction at 10 µM: 1.08
  effect on the overexpression of miR-124 in PBMCs: none of the known antiretroviral (Maraviroc, Effavirenz, Darunavir or AZT) has any significant effect

## O=C1Nc2ccc(Cl)cc2[C@@](C#CC2CC2)(C(F)(F)F)O1 [Effavirenz, Efavirenz, reference compound]
miR-124
  fold induction at 10 µM: 0.46
  effect on the overexpression of miR-124 in PBMCs: none of the known antiretroviral (Maraviroc, Effavirenz, Darunavir or AZT) has any significant effect

## Maraviroc [reference compound]
miR-124
  effect on the overexpression of miR-124 in PBMCs: none of the known antiretroviral (Maraviroc, Effavirenz, Darunavir or AZT) has any significant effect
  Fold-change compared to DMSO treated cells (Relative quantification) Mean: 0.73
